This note sets out measurements from ChEMBL document CHEMBL1158620, “Synthesis and evaluation of novel alpha-amino cyclic boronates as inhibitors of HCV NS3 protease” (Bioorg Med Chem Lett, 2010).

The subject of test [1] is Hepatitis C virus. Kind of test: Antiviral activity against HCV 1b by cell based replicon assay. Format: functional, organism-based, Hepacivirus hominis. To be noted: genotype 1b.
Test [2] deals with Hepatitis C virus. Kind of test: Inhibition of HCV 1a NS3/4A protease by FRET assay. Format: functional, Hepatitis C virus subtype 1a. To be noted: for IC50: Hepatitis C virus.
Test [3] concerns Hepatitis C virus. Kind of test: Antiviral activity against HCV 1a by cell based replicon assay. Format: functional, organism-based, Hepacivirus hominis. The note with it: subtype 1a. (In antiviral work, replicon cells carry a viral genome segment that copies itself.)

One may read the EC50 as the concentration needed to bring the measured effect to its halfway point. A low value points to an effect from little substance. By IC50 is commonly meant the concentration that gives 50% inhibition. Read a low IC50 as greater potency. By Ki is commonly meant a dissociation constant, usually derived from enzyme kinetics or from competition with a known ligand.

As for `CC(C)(C)[C@@H](NC(=O)OC1CCCC1)C(=O)N1C[C@H](Oc2nccc3ccccc23)C[C@H]1C(=O)N[C@@H]1B(O)OC[C@@H]1C1CC1`, the EC50 with Hepatitis C virus [1] and in the test on Hepatitis C virus [3] was > 1000 nM in each case. This compound also came in with an IC50 in the test on Hepatitis C virus [2] of 1930 nM.

Turning to `CC(C)(C)[C@H](NC(=O)OC1CCCC1)C(=O)N1C[C@H](OC(=O)N2Cc3cccc(F)c3C2)C[C@H]1C(=O)N[C@H]1CCOB1O`, the EC50 with Hepatitis C virus [1] and with Hepatitis C virus [3] was > 1000 nM in each case. The compound further displayed an IC50 in the test on Hepatitis C virus [2] of 23 nM.

In the case of `CC(C)(C)[C@H](NC(=O)OC1CCCC1)C(=O)N1C[C@H](OC(=O)N2Cc3cccc(F)c3C2)C[C@H]1C(=O)N[C@@H]1CCOB1O`, the EC50 with Hepatitis C virus [1] and in the test on Hepatitis C virus [3] was > 1000 nM each time. In the test on Hepatitis C virus [2], this compound had an IC50 of 5310 nM.

For the compound `CC(C)(C)[C@H](NC(=O)OC1CCCC1)C(=O)N1C[C@H](OC(=O)N2Cc3cccc(F)c3C2)C[C@H]1C(=O)NC1CCCOB1O` (stereo not given in full), the EC50 in the test with Hepatitis C virus [1] and in the test with Hepatitis C virus [3] was > 1000 nM each time. The compound further gave an IC50 with Hepatitis C virus [2] of 320 nM.

On to `CC(C)(C)[C@H](NC(=O)OC1CCCC1)C(=O)N1C[C@H](OC(=O)N2Cc3cccc(F)c3C2)C[C@H]1C(=O)NC1CCCCOB1O` (stereo not given in full), for which the EC50 in the test with Hepatitis C virus [1] and in the test on Hepatitis C virus [3] was > 1000 nM each time. The compound also gave an IC50 in the test on Hepatitis C virus [2] of 24 nM.

With `CC[C@H]1COB(O)[C@H]1NC(=O)[C@@H]1C[C@@H](OC(=O)N2Cc3cccc(F)c3C2)CN1C(=O)[C@@H](NC(=O)OC1CCCC1)C(C)(C)C`, the EC50 with Hepatitis C virus [1] and in the test with Hepatitis C virus [3] was > 1000 nM in each case. The same compound returned an IC50 with Hepatitis C virus [2] of 330 nM.

Take `CC(C)(C)[C@H](NC(=O)OC1CCCC1)C(=O)N1C[C@H](OC(=O)N2Cc3cccc(F)c3C2)C[C@H]1C(=O)N[C@@H]1B(O)OC[C@@H]1C1CC1`: the EC50 in the test with Hepatitis C virus [1] and in the test on Hepatitis C virus [3] was > 1000 nM throughout. In the test on Hepatitis C virus [2], this compound returned an IC50 of 200 nM.

On to `C[C@H]1C[C@H](NC(=O)[C@@H]2C[C@@H](OC(=O)N3Cc4cccc(F)c4C3)CN2C(=O)[C@@H](NC(=O)OC2CCCC2)C(C)(C)C)B(O)O1`, for which the EC50 in the test with Hepatitis C virus [1] and in the test with Hepatitis C virus [3] was > 1000 nM throughout. Moreover, the IC50 with Hepatitis C virus [2] was determined as 340 nM.

Turning to `C[C@H]1[C@H](C)OB(O)[C@H]1NC(=O)[C@@H]1C[C@@H](OC(=O)N2Cc3cccc(F)c3C2)CN1C(=O)[C@@H](NC(=O)OC1CCCC1)C(C)(C)C`, the EC50 with Hepatitis C virus [1] and in the test on Hepatitis C virus [3] was > 1000 nM throughout. In the test on Hepatitis C virus [2], this compound gave an IC50 of 4470 nM.

For the compound `CC(C)(C)[C@H](NC(=O)OC1CCCC1)C(=O)N1C[C@H](OC(=O)N2Cc3cccc(F)c3C2)C[C@H]1C(=O)N[C@H]1COB(O)C1`, the EC50 in the test with Hepatitis C virus [1] and with Hepatitis C virus [3] was > 1000 nM throughout. The compound also showed an IC50 in the test on Hepatitis C virus [2] of 8500 nM.

Turning to `CC(C)(C)[C@@H](NC(=O)OC1CCCC1)C(=O)N1C[C@H](Oc2nccc3ccccc23)C[C@H]1C(=O)N[C@H]1CCOB1O`, the EC50 in the test on Hepatitis C virus [1] and in the test on Hepatitis C virus [3] was > 1000 nM throughout. In addition, the IC50 with Hepatitis C virus [2] was 120 nM.

For `CC(C)(C)[C@@H](NC(=O)OC1CCCC1)C(=O)N1C[C@H](Oc2nccc3ccccc23)C[C@H]1C(=O)N[C@@H]1CCOB1O`, the EC50 in the test on Hepatitis C virus [1] and with Hepatitis C virus [3] was > 1000 nM each time. Further, the midpoint of inhibition in the test with Hepatitis C virus [2], the IC50, lay at 2750 nM.

For `CC(C)(C)[C@@H](NC(=O)OC1CCCC1)C(=O)N1C[C@H](Oc2nccc3ccccc23)C[C@H]1C(=O)NC1CCCOB1O` (stereo not given in full), the EC50 with Hepatitis C virus [1] and in the test with Hepatitis C virus [3] was > 1000 nM throughout. Also, in the test on Hepatitis C virus [2], the IC50 was 730 nM.

In the case of `CC(C)(C)[C@@H](NC(=O)OC1CCCC1)C(=O)N1C[C@H](Oc2nccc3ccccc23)C[C@H]1C(=O)NC1CCCCOB1O` (stereo not given in full), the EC50 in the test on Hepatitis C virus [1] and with Hepatitis C virus [3] was > 1000 nM each time. This compound showed an IC50 in the test on Hepatitis C virus [2] of 170 nM.

With `CC(C)(C)[C@H](NC(=O)[C@@H](NC(=O)c1cnccn1)C1CCCCC1)C(=O)N1C[C@@H]2CCC[C@@H]2[C@H]1C(=O)N[C@H]1CCOB1O`, the EC50 with Hepatitis C virus [1] and in the test with Hepatitis C virus [3] was > 1000 nM in each case. Moreover, in the test with Hepatitis C virus [2], the midpoint of inhibition, the IC50, lay at 120 nM.

As for `CC(C)(C)NC(=O)N[C@H](C(=O)N1C[C@H]2[C@@H]([C@H]1C(=O)N[C@H]1CCOB1O)C2(C)C)C(C)(C)C`, the EC50 with Hepatitis C virus [1] and in the test on Hepatitis C virus [3] was > 1000 nM in each case. In the test on Hepatitis C virus [2], half-maximal inhibition (IC50) required 340 nM.

In the test with Hepatitis C virus [2], `CCC[C@H](NC(=O)[C@@H]1[C@H]2CCC[C@H]2CN1C(=O)[C@@H](NC(=O)[C@@H](NC(=O)c1cnccn1)C1CCCCC1)C(C)(C)C)C(=O)C(=O)NC1CC1` yielded a Ki of 44 nM and an IC50 of 100 nM.
